Reference: ChEMBL document CHEMBL5252552, “Defined concatenated α6α1β3γ2 GABAA receptor constructs reveal dual action of pyrazoloquinolinone allosteric modulators” (Bioorg Med Chem, 2019)

Experiments:
[1] = biological target: T1, Gamma-aminobutyric acid receptor subunit alpha-6/beta-3/gamma-2 (Rattus norvegicus) (UniProt P18508+P30191+P63079); experiment: Positive allosteric modulation of rat recombinant GABAA alpha6beta3gamma2 receptor expressed in Xenopus laevis oocytes assessed as maximal efficacy at -80 mV holding potential at 30 nM in presence of GABA EC1 to 1.5 by two-electrode voltage-clamp assay; type: cell-based; details: Oocyte, filed as positive allosteric modulator
[2] = biological target: T1, Gamma-aminobutyric acid receptor subunit alpha-6/beta-3/gamma-2 (Rattus norvegicus); experiment: Positive allosteric modulation of rat recombinant GABAA alpha6beta3alpha6-gamma2beta3 receptor expressed in Xenopus laevis oocytes assessed as maximal efficacy at -80 mV holding potential at 10 nM in presence of GABA EC1 to 1.5 by two-electrode voltage-clamp assay; type: cell-based; details: Oocyte
[3] = biological target: T1, Gamma-aminobutyric acid receptor subunit alpha-6/beta-3/gamma-2 (Rattus norvegicus); experiment: Positive allosteric modulation of rat recombinant GABAA alpha6beta3gamma2 receptor expressed in Xenopus laevis oocytes assessed as maximal efficacy at -80 mV holding potential at 100 nM in presence of GABA EC1 to 1.5 by two-electrode voltage-clamp assay; type: cell-based; details: Oocyte, filed as positive allosteric modulator
[4] = biological target: T2, Gamma-aminobutyric acid receptor subunit alpha-6/beta-3/gamma-2 (Rattus norvegicus, UniProt P18508+P30191+P63079); experiment: (§1) Positive allosteric modulation of rat recombinant GABAA alpha6beta3gamma2 receptor expressed in Xenopus laevis oocytes assessed as increase in GABA-induced current amplitude at -80 mV holding potential under less potent phase in presence of GABA EC1 to 1.5 by two-electrode voltage-clamp assay; type: cell-based, Oocyte
[5] = biological target: T3, Gamma-aminobutyric acid receptor subunit alpha-1/alpha-6/beta-3/gamma-2 (Rattus norvegicus) (UniProt P18508+P30191+P62813+P63079); experiment: Positive allosteric modulation of rat recombinant GABAA alpha6beta3alpha1-gamma2beta3 receptor expressed in Xenopus laevis oocytes assessed as maximal efficacy at -80 mV holding potential at 100 nM in presence of GABA EC1 to 1.5 by two-electrode voltage-clamp assay; type: cell-based; details: Oocyte
[6] = biological target: T1, Gamma-aminobutyric acid receptor subunit alpha-6/beta-3/gamma-2 (Rattus norvegicus); experiment: Positive allosteric modulation of rat recombinant GABAA alpha6beta3alpha6-gamma2beta3 receptor expressed in Xenopus laevis oocytes assessed as maximal efficacy at -80 mV holding potential at 1 nM in presence of GABA EC1 to 1.5 by two-electrode voltage-clamp assay; type: cell-based; details: Oocyte
[7] = biological target: T3, Gamma-aminobutyric acid receptor subunit alpha-1/alpha-6/beta-3/gamma-2 (Rattus norvegicus); experiment: Positive allosteric modulation of rat recombinant GABAA alpha6beta3alpha1-gamma2beta3 receptor expressed in Xenopus laevis oocytes assessed as maximal efficacy at -80 mV holding potential at 1 uM in presence of GABA EC1 to 1.5 by two-electrode voltage-clamp assay; type: cell-based; details: Oocyte, filed as positive allosteric modulator
[8] = biological target: T4, Gamma-aminobutyric acid receptor subunit alpha-1/beta-3/gamma-2 (Rattus norvegicus) (UniProt P18508+P62813+P63079); experiment: Positive allosteric modulation of rat recombinant GABAA alpha1beta3alpha1-gamma2beta3 receptor expressed in Xenopus laevis oocytes assessed as maximal current at -80 mV holding potential under less potent phase in presence of GABA EC1 to 1.5 by two-electrode voltage-clamp assay relative to control; type: cell-based; details: Oocyte, filed as positive allosteric modulator
[9] = biological target: T1, Gamma-aminobutyric acid receptor subunit alpha-6/beta-3/gamma-2 (Rattus norvegicus); experiment: Positive allosteric modulation of rat recombinant GABAA alpha6beta3alpha6-gamma2beta3 receptor expressed in Xenopus laevis oocytes assessed as maximal current at -80 mV holding potential under more potent phase in presence of GABA EC1 to 1.5 by two-electrode voltage-clamp assay relative to control; type: cell-based; details: Oocyte, filed as positive allosteric modulator
[10] = biological target: T1, Gamma-aminobutyric acid receptor subunit alpha-6/beta-3/gamma-2 (Rattus norvegicus); experiment: Positive allosteric modulation of rat recombinant GABAA alpha6beta3alpha6-gamma2beta3 receptor expressed in Xenopus laevis oocytes assessed as maximal efficacy at -80 mV holding potential at 10 uM in presence of GABA EC1 to 1.5 by two-electrode voltage-clamp assay; type: cell-based; details: Oocyte, filed as positive allosteric modulator
[11] = biological target: T1, Gamma-aminobutyric acid receptor subunit alpha-6/beta-3/gamma-2 (Rattus norvegicus); experiment: Positive allosteric modulation of rat recombinant GABAA alpha6beta3gamma2 receptor expressed in Xenopus laevis oocytes assessed as maximal efficacy at -80 mV holding potential at 300 nM in presence of GABA EC1 to 1.5 by two-electrode voltage-clamp assay; type: cell-based; details: Oocyte, filed as positive allosteric modulator
[12] = biological target: T1, Gamma-aminobutyric acid receptor subunit alpha-6/beta-3/gamma-2 (Rattus norvegicus); experiment: Positive allosteric modulation of rat recombinant GABAA alpha6beta3alpha6-gamma2beta3 receptor expressed in Xenopus laevis oocytes assessed as maximal efficacy at -80 mV holding potential at 3 uM in presence of GABA EC1 to 1.5 by two-electrode voltage-clamp assay; type: cell-based; details: Oocyte, filed as positive allosteric modulator
[13] = biological target: T3, Gamma-aminobutyric acid receptor subunit alpha-1/alpha-6/beta-3/gamma-2 (Rattus norvegicus); experiment: Positive allosteric modulation of rat recombinant GABAA alpha6beta3alpha1-gamma2beta3 receptor expressed in Xenopus laevis oocytes assessed as maximal efficacy at -80 mV holding potential at 10 nM in presence of GABA EC1 to 1.5 by two-electrode voltage-clamp assay; type: cell-based; details: Oocyte
[14] = biological target: T3, Gamma-aminobutyric acid receptor subunit alpha-1/alpha-6/beta-3/gamma-2 (Rattus norvegicus); experiment: Positive allosteric modulation of rat recombinant GABAA gamma2beta3alpha1-beta3alpha6 receptor expressed in Xenopus laevis oocytes assessed as maximal efficacy at -80 mV holding potential at 100 nM in presence of GABA EC1 to 1.5 by two-electrode voltage-clamp assay; type: cell-based; details: Oocyte, filed as positive allosteric modulator
[15] = biological target: T4, Gamma-aminobutyric acid receptor subunit alpha-1/beta-3/gamma-2 (Rattus norvegicus); experiment: Positive allosteric modulation of rat recombinant GABAA alpha1beta3gamma2 receptor expressed in Xenopus laevis oocytes assessed as maximal efficacy at -80 mV holding potential at 1 uM in presence of GABA EC1 to 1.5 by two-electrode voltage-clamp assay; type: cell-based; details: Oocyte
[16] = biological target: T1, Gamma-aminobutyric acid receptor subunit alpha-6/beta-3/gamma-2 (Rattus norvegicus); experiment: Positive allosteric modulation of rat recombinant GABAA alpha6beta3gamma2 receptor expressed in Xenopus laevis oocytes assessed as maximal current at -80 mV holding potential under more potent phase in presence of GABA EC1 to 1.5 by two-electrode voltage-clamp assay relative to control; type: cell-based; details: Oocyte, filed as positive allosteric modulator
[17] = biological target: T3, Gamma-aminobutyric acid receptor subunit alpha-1/alpha-6/beta-3/gamma-2 (Rattus norvegicus); experiment: Positive allosteric modulation of rat recombinant GABAA gamma2beta3alpha1-beta3alpha6 receptor expressed in Xenopus laevis oocytes assessed as maximal efficacy at -80 mV holding potential at 30 uM in presence of GABA EC1 to 1.5 by two-electrode voltage-clamp assay; type: cell-based; details: Oocyte, filed as positive allosteric modulator
[18] = biological target: Gamma-aminobutyric acid receptor subunit alpha-1/beta-3/gamma-2 (Rattus norvegicus, UniProt P18508+P62813+P63079); experiment: Positive allosteric modulation of rat recombinant GABAA alpha1beta3gamma2 receptor expressed in Xenopus laevis oocytes assessed as increase in GABA-induced current amplitude at -80 mV holding potential under less potent phase in presence of GABA EC1 to 1.5 by two-electrode voltage-clamp assay; type: cell-based, Oocyte
[19] = biological target: T3, Gamma-aminobutyric acid receptor subunit alpha-1/alpha-6/beta-3/gamma-2 (Rattus norvegicus); experiment: Positive allosteric modulation of rat recombinant GABAA alpha6beta3alpha1-gamma2beta3 receptor expressed in Xenopus laevis oocytes assessed as maximal current at -80 mV holding potential under less potent phase in presence of GABA EC1 to 1.5 by two-electrode voltage-clamp assay relative to control; type: cell-based; details: Oocyte, filed as positive allosteric modulator
[20] = biological target: T3, Gamma-aminobutyric acid receptor subunit alpha-1/alpha-6/beta-3/gamma-2 (Rattus norvegicus); experiment: Positive allosteric modulation of rat recombinant GABAA gamma2beta3alpha1-beta3alpha6 receptor expressed in Xenopus laevis oocytes assessed as maximal efficacy at -80 mV holding potential at 1 nM in presence of GABA EC1 to 1.5 by two-electrode voltage-clamp assay; type: cell-based; details: Oocyte
[21] = biological target: T2, Gamma-aminobutyric acid receptor subunit alpha-6/beta-3/gamma-2; experiment: as §1, with “alpha6beta3alpha6-gamma2beta3” for “alpha6beta3gamma2”, “more” for “less”; type: cell-based, Oocyte
[22] = biological target: T3, Gamma-aminobutyric acid receptor subunit alpha-1/alpha-6/beta-3/gamma-2 (Rattus norvegicus); experiment: Positive allosteric modulation of rat recombinant GABAA alpha6beta3alpha1-gamma2beta3 receptor expressed in Xenopus laevis oocytes assessed as maximal efficacy at -80 mV holding potential at 10 uM in presence of GABA EC1 to 1.5 by two-electrode voltage-clamp assay; type: cell-based; details: Oocyte, filed as positive allosteric modulator
[23] = biological target: T1, Gamma-aminobutyric acid receptor subunit alpha-6/beta-3/gamma-2 (Rattus norvegicus); experiment: Positive allosteric modulation of rat recombinant GABAA alpha6beta3gamma2 receptor expressed in Xenopus laevis oocytes assessed as maximal efficacy at -80 mV holding potential at 1 uM in presence of GABA EC1 to 1.5 by two-electrode voltage-clamp assay; type: cell-based; details: Oocyte, filed as positive allosteric modulator

T2 sequence (P18508 whole entry): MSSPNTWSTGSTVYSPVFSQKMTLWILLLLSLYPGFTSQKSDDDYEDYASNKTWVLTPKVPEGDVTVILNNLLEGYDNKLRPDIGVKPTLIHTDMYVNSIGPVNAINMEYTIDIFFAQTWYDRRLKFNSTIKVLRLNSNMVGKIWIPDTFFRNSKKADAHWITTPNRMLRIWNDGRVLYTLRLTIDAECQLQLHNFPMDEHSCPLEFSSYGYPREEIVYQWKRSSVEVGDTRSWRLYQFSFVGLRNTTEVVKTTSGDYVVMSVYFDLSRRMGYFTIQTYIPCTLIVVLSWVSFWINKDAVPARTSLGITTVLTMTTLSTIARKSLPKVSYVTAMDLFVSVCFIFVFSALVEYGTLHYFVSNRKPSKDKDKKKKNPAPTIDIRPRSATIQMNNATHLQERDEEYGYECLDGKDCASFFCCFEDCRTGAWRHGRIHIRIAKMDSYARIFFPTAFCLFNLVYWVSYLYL
T2 sequence (P30191 whole entry): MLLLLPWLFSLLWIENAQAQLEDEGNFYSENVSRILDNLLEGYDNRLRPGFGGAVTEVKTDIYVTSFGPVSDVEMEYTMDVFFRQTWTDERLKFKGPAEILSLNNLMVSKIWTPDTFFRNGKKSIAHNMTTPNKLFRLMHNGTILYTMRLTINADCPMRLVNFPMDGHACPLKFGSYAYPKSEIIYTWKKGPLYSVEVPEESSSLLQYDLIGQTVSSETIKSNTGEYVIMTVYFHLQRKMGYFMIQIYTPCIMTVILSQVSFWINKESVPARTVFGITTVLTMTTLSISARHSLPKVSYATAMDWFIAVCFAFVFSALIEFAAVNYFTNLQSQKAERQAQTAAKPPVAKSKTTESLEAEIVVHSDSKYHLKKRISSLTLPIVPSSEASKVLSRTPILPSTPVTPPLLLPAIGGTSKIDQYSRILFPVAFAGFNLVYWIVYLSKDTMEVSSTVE
T2 sequence (P63079 whole entry): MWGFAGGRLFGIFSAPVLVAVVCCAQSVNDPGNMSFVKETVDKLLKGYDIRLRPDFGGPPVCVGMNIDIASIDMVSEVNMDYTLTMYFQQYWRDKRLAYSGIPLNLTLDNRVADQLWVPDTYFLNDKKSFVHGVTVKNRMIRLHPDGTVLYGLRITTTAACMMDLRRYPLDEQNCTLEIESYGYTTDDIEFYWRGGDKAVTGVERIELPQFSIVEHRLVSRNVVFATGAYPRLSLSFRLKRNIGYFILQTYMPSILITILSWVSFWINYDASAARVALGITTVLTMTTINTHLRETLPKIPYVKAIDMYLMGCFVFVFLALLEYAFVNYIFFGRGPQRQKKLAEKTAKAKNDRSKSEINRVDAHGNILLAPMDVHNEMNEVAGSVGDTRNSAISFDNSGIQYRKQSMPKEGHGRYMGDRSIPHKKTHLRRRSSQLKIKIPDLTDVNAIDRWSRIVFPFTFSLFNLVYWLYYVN
Gamma-aminobutyric acid receptor subunit alpha-1/beta-3/gamma-2, sequence (P18508 whole entry): as the sequence (P18508 whole entry) above
Gamma-aminobutyric acid receptor subunit alpha-1/beta-3/gamma-2, sequence (P62813 whole entry): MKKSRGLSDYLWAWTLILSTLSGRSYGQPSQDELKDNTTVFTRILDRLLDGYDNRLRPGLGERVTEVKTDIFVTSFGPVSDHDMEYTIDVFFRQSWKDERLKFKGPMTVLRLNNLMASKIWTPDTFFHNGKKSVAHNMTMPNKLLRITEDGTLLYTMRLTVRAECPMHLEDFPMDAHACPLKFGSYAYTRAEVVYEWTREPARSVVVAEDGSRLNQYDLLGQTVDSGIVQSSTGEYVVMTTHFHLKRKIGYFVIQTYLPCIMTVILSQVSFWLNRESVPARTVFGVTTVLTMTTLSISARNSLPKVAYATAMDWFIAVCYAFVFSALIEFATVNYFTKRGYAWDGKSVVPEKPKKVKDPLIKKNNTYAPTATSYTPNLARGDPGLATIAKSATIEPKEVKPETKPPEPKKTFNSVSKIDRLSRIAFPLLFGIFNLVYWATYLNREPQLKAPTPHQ
Gamma-aminobutyric acid receptor subunit alpha-1/beta-3/gamma-2, sequence (P63079 whole entry): as the sequence (P63079 whole entry) above

Efficacy [1]: 49%
Efficacy [2]: 33%
Efficacy [3]: 46%
EC50 [4]: 11 µM
Efficacy [5]: 18%
Efficacy [6]: 5%
Efficacy [7]: 144%
%max [8]: 342%
%max [9]: 82%
Efficacy [10]: 621%
Efficacy [11]: 121%
Efficacy [12]: 320%
Efficacy [13]: 2%
Efficacy [14]: 45%
Efficacy [15]: 18%
%max [16]: 70%
Efficacy [17]: 210%
EC50 [18]: 6 µM
%max [19]: 1060%
Efficacy [20]: 3%
EC50 [21]: 0.009 µM
Efficacy [22]: 662%
Efficacy [23]: 185%
Compound: COc1ccc(-n2nc3c4ccc(Br)cc4[nH]cc-3c2=O)cc1
